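48-hour exposure; five concentrations; linearly interpolated endpoints. Here, GI50 denotes the concentration required for 50% inhibition of growth. TGI marks complete inhibition of growth.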
Experiments:
Test in all cases: growth of human tumour cells (NCI), 48 h
[1] = tested on: A549 NSCLC
[2] = tested on: ACHN renal
[3] = tested on: CAKI-1 renal
[4] = tested on: CCRF-CEM leukemia
[5] = tested on: COLO 205 colon
[6] = tested on: DU-145 prostate
[7] = tested on: EKVX NSCLC
[8] = tested on: HCC-2998 colon
[9] = tested on: HCT-116 colon
[10] = tested on: HCT-15 colon
[11] = tested on: HL-60(TB) leukemia
[12] = tested on: HOP-62 NSCLC
[13] = tested on: HOP-92 NSCLC
[14] = tested on: HS 578T breast
[15] = tested on: HT29 colon
[16] = tested on: IGROV1 ovarian
[17] = tested on: K-562 leukemia
[18] = tested on: KM12 colon
[19] = tested on: LOX IMVI melanoma
[20] = tested on: MALME-3M melanoma
[21] = tested on: MCF7 breast
[22] = tested on: MDA-MB-231 breast
[23] = tested on: MDA-MB-435
[24] = tested on: MOLT-4 leukemia
[25] = tested on: NCI-H226 lung
[26] = tested on: NCI-H23 lung
[27] = tested on: NCI-H460 lung
[28] = tested on: NCI-H522 lung
[29] = tested on: NCI/ADR-RES ovarian
[30] = tested on: OVCAR-3 ovarian
[31] = tested on: OVCAR-5 ovarian
[32] = tested on: OVCAR-8 ovarian
[33] = tested on: RPMI-8226 leukemia
[34] = tested on: SF-268 CNS
[35] = tested on: SF-295 CNS
[36] = tested on: SF-539 CNS
[37] = tested on: SK-MEL-2 melanoma
[38] = tested on: SK-MEL-28 melanoma
[39] = tested on: SK-MEL-5 melanoma
[40] = tested on: SK-OV-3 ovarian
[41] = tested on: SNB-75 CNS
[42] = tested on: SR leukemia
[43] = tested on: SW-620 colon
[44] = tested on: TK-10 renal
[45] = tested on: UACC-257 melanoma
[46] = tested on: UO-31 renal
[47] = tested on: 786-0 renal
[48] = tested on: A498 renal
[49] = tested on: SNB-19 CNS

Question: `CCCCCCCCCOc1c(OC)cc(C2CC(=O)Nc3c2c(C)nn3-c2nc3ccccc3[nH]2)cc1OC` (stereo unspecified) was tested. Which GI50 [1] did it give?
Answer: Its GI50 is 1080 nM.

Question: And the TGI [1]?
Answer: The TGI was 2350 nM.

Question: And the GI50 [2]?
Answer: Its GI50 is 1130 nM.

Question: And the TGI [2]?
Answer: The TGI was 2790 nM.

Question: What about the GI50 [3] of the same compound?
Answer: The GI50 was 917 nM.

Question: What about the TGI [3] of the same compound?
Answer: Its TGI is 1810 nM.

Question: And the GI50 [4]?
Answer: The GI50 was 1720 nM.

Question: What about the TGI [4] of the same compound?
Answer: Its TGI is greater than 50000 nM.

Question: What about the GI50 [5] of the same compound?
Answer: The GI50 was 1730 nM.

Question: And the TGI [5]?
Answer: Its TGI is greater than 50000 nM.

Question: And the GI50 [6]?
Answer: Its GI50 is 1790 nM.

Question: What about the TGI [6] of the same compound?
Answer: Its TGI is greater than 50000 nM.

Question: What about the GI50 [7] of the same compound?
Answer: Its GI50 is 981 nM.

Question: What about the TGI [7] of the same compound?
Answer: The TGI was 2320 nM.

Question: What about the GI50 [8] of the same compound?
Answer: The GI50 was 1620 nM.

Question: What about the TGI [8] of the same compound?
Answer: The TGI was greater than 50000 nM.

Question: What about the GI50 [9] of the same compound?
Answer: The GI50 was 1780 nM.

Question: What about the TGI [9] of the same compound?
Answer: The TGI was greater than 50000 nM.

Question: What about the GI50 [10] of the same compound?
Answer: Its GI50 is 1050 nM.

Question: And the TGI [10]?
Answer: Its TGI is 2460 nM.

Question: And the GI50 [11]?
Answer: The GI50 was 1580 nM.

Question: And the TGI [11]?
Answer: The TGI was 4450 nM.

Question: And the GI50 [12]?
Answer: Its GI50 is 974 nM.

Question: What about the TGI [12] of the same compound?
Answer: The TGI was 2110 nM.

Question: What about the GI50 [13] of the same compound?
Answer: Its GI50 is 955 nM.

Question: What about the TGI [13] of the same compound?
Answer: The TGI was 2460 nM.

Question: And the GI50 [14]?
Answer: The GI50 was 622 nM.

Question: What about the TGI [14] of the same compound?
Answer: Its TGI is 1970 nM.

Question: What about the GI50 [15] of the same compound?
Answer: Its GI50 is 1640 nM.

Question: And the TGI [15]?
Answer: The TGI was greater than 50000 nM.

Question: And the GI50 [16]?
Answer: Its GI50 is 890 nM.

Question: What about the TGI [16] of the same compound?
Answer: Its TGI is 1770 nM.

Question: And the GI50 [17]?
Answer: The GI50 was 1810 nM.

Question: What about the TGI [17] of the same compound?
Answer: The TGI was greater than 50000 nM.

Question: And the GI50 [18]?
Answer: Its GI50 is 1170 nM.

Question: What about the TGI [18] of the same compound?
Answer: Its TGI is 3080 nM.

Question: What about the GI50 [19] of the same compound?
Answer: Its GI50 is 913 nM.

Question: And the TGI [19]?
Answer: The TGI was 1670 nM.

Question: What about the GI50 [20] of the same compound?
Answer: The GI50 was 914 nM.

Question: And the TGI [20]?
Answer: The TGI was 1920 nM.

Question: And the GI50 [21]?
Answer: The GI50 was 1590 nM.

Question: What about the TGI [21] of the same compound?
Answer: The TGI was greater than 50000 nM.

Question: What about the GI50 [22] of the same compound?
Answer: The GI50 was 975 nM.

Question: What about the TGI [22] of the same compound?
Answer: The TGI was 1870 nM.

Question: And the GI50 [23]?
Answer: Its GI50 is 982 nM.

Question: And the TGI [23]?
Answer: The TGI was 1990 nM.

Question: And the GI50 [24]?
Answer: The GI50 was 1340 nM.

Question: What about the TGI [24] of the same compound?
Answer: The TGI was 3250 nM.

Question: What about the GI50 [25] of the same compound?
Answer: Its GI50 is 939 nM.

Question: What about the TGI [25] of the same compound?
Answer: The TGI was 1840 nM.

Question: And the GI50 [26]?
Answer: Its GI50 is 904 nM.

Question: And the TGI [26]?
Answer: The TGI was 1830 nM.

Question: And the GI50 [27]?
Answer: The GI50 was 928 nM.

Question: What about the TGI [27] of the same compound?
Answer: The TGI was 1800 nM.

Question: And the GI50 [28]?
Answer: The GI50 was 1010 nM.

Question: What about the TGI [28] of the same compound?
Answer: Its TGI is 2400 nM.

Question: And the GI50 [29]?
Answer: The GI50 was 1310 nM.

Question: And the TGI [29]?
Answer: Its TGI is 3740 nM.

Question: And the GI50 [30]?
Answer: Its GI50 is 1180 nM.

Question: And the TGI [30]?
Answer: The TGI was 2890 nM.

Question: And the GI50 [31]?
Answer: Its GI50 is 881 nM.

Question: And the TGI [31]?
Answer: The TGI was 1860 nM.

Question: And the GI50 [32]?
Answer: The GI50 was 1710 nM.

Question: And the TGI [32]?
Answer: The TGI was 7280 nM.

Question: And the GI50 [33]?
Answer: Its GI50 is 1460 nM.

Question: And the TGI [33]?
Answer: The TGI was 4290 nM.

Question: And the GI50 [34]?
Answer: Its GI50 is 1040 nM.

Question: And the TGI [34]?
Answer: The TGI was 2570 nM.

Question: And the GI50 [35]?
Answer: Its GI50 is 816 nM.

Question: What about the TGI [35] of the same compound?
Answer: The TGI was 1740 nM.

Question: What about the GI50 [36] of the same compound?
Answer: Its GI50 is 851 nM.

Question: And the TGI [36]?
Answer: The TGI was 1650 nM.

Question: And the GI50 [37]?
Answer: The GI50 was 1410 nM.

Question: And the TGI [37]?
Answer: Its TGI is 4310 nM.

Question: And the GI50 [38]?
Answer: Its GI50 is 897 nM.

Question: What about the TGI [38] of the same compound?
Answer: Its TGI is 1810 nM.

Question: What about the GI50 [39] of the same compound?
Answer: The GI50 was 871 nM.

Question: What about the TGI [39] of the same compound?
Answer: Its TGI is 1560 nM.

Question: And the GI50 [40]?
Answer: Its GI50 is 1060 nM.

Question: What about the TGI [40] of the same compound?
Answer: The TGI was 2090 nM.

Question: And the GI50 [41]?
Answer: The GI50 was 670 nM.

Question: And the TGI [41]?
Answer: The TGI was 1550 nM.

Question: And the GI50 [42]?
Answer: The GI50 was 1570 nM.

Question: And the TGI [42]?
Answer: Its TGI is 6510 nM.

Question: What about the GI50 [43] of the same compound?
Answer: The GI50 was 1000 nM.

Question: And the TGI [43]?
Answer: Its TGI is 2170 nM.

Question: What about the GI50 [44] of the same compound?
Answer: Its GI50 is 1270 nM.

Question: What about the TGI [44] of the same compound?
Answer: The TGI was 3830 nM.

Question: What about the GI50 [45] of the same compound?
Answer: The GI50 was 1470 nM.

Question: And the TGI [45]?
Answer: The TGI was greater than 50000 nM.

Question: What about the GI50 [46] of the same compound?
Answer: The GI50 was 679 nM.

Question: And the TGI [46]?
Answer: The TGI was 1320 nM.

Question: With `Cc1n(Cc2ccc3ccccc3c2)c2ccccc2[n+]1Cc1ccc2ccccc2c1` as the compound, how does the GI50 [47] read?
Answer: The GI50 was 1750 nM.

Question: What about the TGI [47] of the same compound?
Answer: Its TGI is 3320 nM.

Question: And the GI50 [48]?
Answer: Its GI50 is 1350 nM.

Question: What about the TGI [48] of the same compound?
Answer: Its TGI is 2880 nM.

Question: What about the GI50 [1] of the same compound?
Answer: Its GI50 is 1760 nM.

Question: What about the TGI [1] of the same compound?
Answer: The TGI was 3400 nM.

Question: What about the GI50 [2] of the same compound?
Answer: Its GI50 is 2460 nM.

Question: And the TGI [2]?
Answer: The TGI was 6490 nM.

Question: What about the GI50 [6] of the same compound?
Answer: Its GI50 is 1630 nM.

Question: And the TGI [6]?
Answer: The TGI was 3040 nM.

Question: And the GI50 [13]?
Answer: The GI50 was 31.7 nM.

Question: And the TGI [13]?
Answer: The TGI was 2060 nM.

Question: And the GI50 [22]?
Answer: Its GI50 is 1330 nM.

Question: And the TGI [22]?
Answer: Its TGI is 2710 nM.

Question: And the GI50 [29]?
Answer: The GI50 was 19200 nM.

Question: And the TGI [29]?
Answer: The TGI was 87600 nM.

Question: And the GI50 [31]?
Answer: The GI50 was 1420 nM.

Question: And the TGI [31]?
Answer: The TGI was 2820 nM.

Question: What about the GI50 [33] of the same compound?
Answer: The GI50 was 29.1 nM.

Question: And the TGI [33]?
Answer: The TGI was 1480 nM.

Question: And the GI50 [36]?
Answer: The GI50 was 1530 nM.

Question: And the TGI [36]?
Answer: The TGI was 2910 nM.

Question: What about the GI50 [38] of the same compound?
Answer: The GI50 was 1540 nM.

Question: And the TGI [38]?
Answer: Its TGI is 3180 nM.

Question: And the GI50 [40]?
Answer: The GI50 was 1650 nM.

Question: What about the TGI [40] of the same compound?
Answer: The TGI was 3110 nM.

Question: What about the GI50 [49] of the same compound?
Answer: The GI50 was 1350 nM.

Question: What about the TGI [49] of the same compound?
Answer: Its TGI is 2770 nM.

Question: What about the GI50 [44] of the same compound?
Answer: Its GI50 is 1550 nM.

Question: And the TGI [44]?
Answer: The TGI was 3030 nM.

Question: What about the GI50 [45] of the same compound?
Answer: The GI50 was 1240 nM.

Question: What about the TGI [45] of the same compound?
Answer: The TGI was 2790 nM.

Question: What about the GI50 [46] of the same compound?
Answer: Its GI50 is 1500 nM.

Question: What about the TGI [46] of the same compound?
Answer: The TGI was 2870 nM.
